According to patent US20240350660A1, “Compositions and Methods for Increasing Bioavailability Using Cyclodextrin Modification” (priority 2021, published 2024):

Assays:
[1] = test system: mouse model of diabetes (streptozotocin-induced); assay: Streptozotocin-induced diabetes mouse model, blood glucose 4 hours post treatment; type: in vivo, mice (C57BL/6)
Description: Eight week old male C57BL/6 strain of mice were used. The mice were fed on standard diet and water ad libitum. Diabetes was induced by intraperitoneal injection of 60 mg/kg of a freshly prepared streptozotocin (STZ) dissolved in 0.1 M cold citrate buffer at a pH of 4.5. Body weight, food, and fluid intake were monitored daily. Induction was continued for 7 consecutive days until chronic polydipsia and polyuria was established. Post-prandial blood glucose levels were measured by blood glucose strips, and mice with levels higher than 400 mg/dL were defined as chronically diabetic and chosen for experiments. Test animals were treated with product by oral gavage. For a given product, n=6 animals were treated. Blood samples for whole blood glucose were obtained from the tail tip 4 hours post treatment, and blood glucose levels were measured by Roche blood glucose strips. Means and standard error of the means were calculated. Differences in mean post-prandial blood glucose 4 hours post treatment of animals treated with product and untreated control […] diabetic animals (n=6) were calculated. Relative clinical effects of the products tested were determined by comparing the difference in blood glucose of treated relative to untreated controls.

SARS-COV-2 [2] = assay: Human ACE2 transgenic COVID-19 mouse model (body weight, survival); type: in vivo, hACE2 transgenic mice; settings: Daily
SARS-COV-2 [3] = assay: SARS-COV-2 replication in Vero E6 cells in vitro (viral load by RT-PCR); type: cell-based; settings: Severe acute respiratory syndrome coronavirus 2, Vero C1008; FIG. 3; cells treated at 1 μM final concentration; complexes at 1:1 molar ratio; read-out: Inhibition of SARS-COV-2 replication over untreated
[4] = 25 mg/kg oral gavage, n=6, glucose levels given in mg/dL
[5] = 200 mg/kg, Pretreatment to Day 7

OC[C@H]1O[C@@H]2O[C@H]3[C@H](O)[C@@H](O)[C@@H](O[C@H]4[C@H](O)[C@@H](O)[C@@H](O[C@H]5[C@H](O)[C@@H](O)[C@@H](O[C@H]6[C@H](O)[C@@H](O)[C@@H](O[C@H]7[C@H](O)[C@@H](O)[C@@H](O[C@H]8[C@H](O)[C@@H](O)[C@@H](O[C@H]1[C@H](O)[C@H]2O)O[C@@H]8CO)O[C@@H]7CO)O[C@@H]6CO)O[C@@H]5CO)O[C@@H]4CO)O[C@@H]3CO [Betacyclodextrin alone, beta-cyclodextrin]
Difference in 4 h Blood Glucose vs. Untreated [1, 4]: 35.46

Cc1cnc(C(=O)NCCc2ccc(S(=O)(=O)NC(=O)NC3CCCCC3)cc2)cn1 [Glipizide]
Difference in 4 h Blood Glucose vs. Untreated ([1]; 5 mg/kg oral gavage, n=6): 198.0

Insulin
Difference in 4 h Blood Glucose vs. Untreated ([1]; 0.5 IU sc): 203.2
Difference in 4 h Blood Glucose vs. Untreated ([1]; 1 IU sc): 236.2

CCC(CC)COC(=O)[C@H](C)N[P@](=O)(OC[C@H]1O[C@@](C#N)(c2ccc3c(N)ncnn23)[C@H](O)[C@@H]1O)Oc1ccccc1 [Remdesivir]
Survival (SARS-COV-2 [2]; 50 mg/kg, Day 1 post-treatment to 7): 100%
Survival (SARS-COV-2 [2]; [5]): 100%

CN(C)C(=N)N=C(N)N [Metformin]
Difference in 4 h Blood Glucose vs. Untreated ([1]; 200 mg/kg oral): 173.9
Difference in 4 h Blood Glucose vs. Untreated ([1]; 250 mg/kg oral gavage, n=6): 181.7

COc1cc(/C=C/C(=O)CC(=O)/C=C/c2ccc(O)c(OC)c2)ccc1O [Unconjugated Curcumin, curcumin]
Difference in 4 h Blood Glucose vs. Untreated ([1]; 5 mg/kg oral gavage, n=6): 29.8
Difference in 4 h Blood Glucose vs. Untreated [1, 4]: 60.22

C[C@@H]1O[C@@H](OC[C@H]2O[C@@H](Oc3c(-c4ccc(O)c(O)c4)oc4cc(O)cc(O)c4c3=O)[C@H](O)[C@@H](O)[C@@H]2O)[C@H](O)[C@H](O)[C@H]1O [rutin]
inhibition at 1 µM (SARS-COV-2 [3]): ~25%

O=c1c(O)c(-c2ccc(O)c(O)c2)oc2cc(O)cc(O)c12 [Quercitin]
Survival (SARS-COV-2 [2]; 66 mg/kg, Pretreatment to Day 7): 80%
Survival (SARS-COV-2 [2]; [5]): 100%
